Test results as given in ChEMBL document CHEMBL5465560, “Selectivity Literature for EUbOPEN Chemogenomic Library” (2024).

Legend:
[1] = molecular target: Serine/threonine-protein kinase PLK1 (Homo sapiens, UniProt P53350); experiment: Selectivity interaction (KinomeScan (DiscoverX)) EUB0000092b PLK1; settings: at 10 µM
[2] = molecular target: T1, Dual specificity mitogen-activated protein kinase kinase 7 (Homo sapiens) (UniProt O14733); experiment: Selectivity interaction (Upstate Kinase Profiler service (Millipore)) EUB0000056c MAP2K7; settings: at 1 µM
T1 sequence (whole entry): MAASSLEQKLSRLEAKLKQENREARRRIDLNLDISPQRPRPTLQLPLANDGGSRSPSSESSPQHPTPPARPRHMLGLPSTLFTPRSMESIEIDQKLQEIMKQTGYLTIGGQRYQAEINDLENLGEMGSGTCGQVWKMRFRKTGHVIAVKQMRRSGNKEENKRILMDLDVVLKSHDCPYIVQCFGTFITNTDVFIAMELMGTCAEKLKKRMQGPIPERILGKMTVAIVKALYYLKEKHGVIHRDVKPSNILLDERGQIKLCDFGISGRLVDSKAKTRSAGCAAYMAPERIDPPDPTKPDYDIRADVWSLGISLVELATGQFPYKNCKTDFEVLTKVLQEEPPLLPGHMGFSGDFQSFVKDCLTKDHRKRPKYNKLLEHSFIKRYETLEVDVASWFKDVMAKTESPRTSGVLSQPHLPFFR

[3] = molecular target: cAMP-dependent protein kinase catalytic subunit alpha (Homo sapiens, UniProt P17612); experiment: Selectivity interaction (ProQinase) EUB0000171b PRKACA
[4] = molecular target: TP53-binding protein 1 (Homo sapiens) (UniProt Q12888); experiment: Selectivity interaction (PWWP, WD40, and Tudor domain panel (DSLS measurements, literature)) EUB0000270b TP53BP1
[5] = molecular target: Aurora kinase B (Homo sapiens, UniProt Q96GD4); experiment: Selectivity interaction (Kinase panel (Invitrogen)) EUB0000639a AURKB; settings: at 200 nM
Aurora kinase B, sequence (Q96GD4 whole entry): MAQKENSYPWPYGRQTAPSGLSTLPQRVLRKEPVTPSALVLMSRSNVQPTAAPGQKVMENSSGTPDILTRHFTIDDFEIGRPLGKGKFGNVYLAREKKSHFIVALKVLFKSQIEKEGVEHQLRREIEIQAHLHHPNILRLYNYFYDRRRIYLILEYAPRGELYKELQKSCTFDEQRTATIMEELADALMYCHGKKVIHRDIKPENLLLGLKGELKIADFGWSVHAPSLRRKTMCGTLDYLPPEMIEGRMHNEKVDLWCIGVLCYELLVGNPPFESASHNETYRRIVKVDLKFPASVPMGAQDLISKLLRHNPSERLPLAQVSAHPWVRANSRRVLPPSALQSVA

[6] = molecular target: BMP-2-inducible protein kinase (Homo sapiens) (UniProt Q9NSY1); experiment: Selectivity interaction (KinomeScan (DiscoverX)) EUB0000607a BMP2K; settings: at 10 µM
BMP-2-inducible protein kinase (Homo sapiens), sequence (Q9NSY1 whole entry, looked up): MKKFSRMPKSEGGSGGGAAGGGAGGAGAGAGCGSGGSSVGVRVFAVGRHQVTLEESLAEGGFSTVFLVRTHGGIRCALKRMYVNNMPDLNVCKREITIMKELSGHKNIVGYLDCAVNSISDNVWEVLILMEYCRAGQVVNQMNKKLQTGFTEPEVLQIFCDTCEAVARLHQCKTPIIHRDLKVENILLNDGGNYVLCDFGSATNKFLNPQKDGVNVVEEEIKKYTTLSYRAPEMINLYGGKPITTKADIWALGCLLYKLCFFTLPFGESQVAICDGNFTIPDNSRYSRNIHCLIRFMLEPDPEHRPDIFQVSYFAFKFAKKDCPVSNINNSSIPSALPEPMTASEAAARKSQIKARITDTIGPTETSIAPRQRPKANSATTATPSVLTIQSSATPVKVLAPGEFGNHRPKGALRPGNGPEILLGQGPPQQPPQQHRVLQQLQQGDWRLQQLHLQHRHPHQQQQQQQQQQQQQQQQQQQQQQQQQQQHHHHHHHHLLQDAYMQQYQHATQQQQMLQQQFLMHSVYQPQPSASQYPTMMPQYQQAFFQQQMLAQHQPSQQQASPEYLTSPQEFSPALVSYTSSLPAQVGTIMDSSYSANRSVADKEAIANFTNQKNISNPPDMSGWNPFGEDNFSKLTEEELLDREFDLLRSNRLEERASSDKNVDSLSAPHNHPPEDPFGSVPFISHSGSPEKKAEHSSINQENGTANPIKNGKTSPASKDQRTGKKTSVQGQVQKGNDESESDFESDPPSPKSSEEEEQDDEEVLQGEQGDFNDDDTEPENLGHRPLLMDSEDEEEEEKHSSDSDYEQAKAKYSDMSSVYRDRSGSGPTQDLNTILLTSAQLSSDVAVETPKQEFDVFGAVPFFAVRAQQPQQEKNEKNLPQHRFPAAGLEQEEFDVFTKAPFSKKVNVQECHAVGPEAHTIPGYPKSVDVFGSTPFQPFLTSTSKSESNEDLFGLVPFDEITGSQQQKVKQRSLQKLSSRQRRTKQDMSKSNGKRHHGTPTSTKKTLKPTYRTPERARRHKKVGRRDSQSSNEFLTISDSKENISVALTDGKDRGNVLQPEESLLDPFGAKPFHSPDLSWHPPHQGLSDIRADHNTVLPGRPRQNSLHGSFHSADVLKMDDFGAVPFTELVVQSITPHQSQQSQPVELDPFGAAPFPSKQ

[7] = molecular target: Histone-lysine N-methyltransferase, H3 lysine-36 specific (Homo sapiens) (UniProt Q96L73); experiment: Selectivity interaction (Methyltransferase screen (radiometric assays, panel of 8 PRMTs, 21 protein lysine methyltransferases, 3 DNA methyltransferases, and one RNA methyltransferase)) EUB0000271b NSD1; settings: at 10 µM
Histone-lysine N-methyltransferase, H3 lysine-36 specific (Homo sapiens), sequence (Q96L73 whole entry): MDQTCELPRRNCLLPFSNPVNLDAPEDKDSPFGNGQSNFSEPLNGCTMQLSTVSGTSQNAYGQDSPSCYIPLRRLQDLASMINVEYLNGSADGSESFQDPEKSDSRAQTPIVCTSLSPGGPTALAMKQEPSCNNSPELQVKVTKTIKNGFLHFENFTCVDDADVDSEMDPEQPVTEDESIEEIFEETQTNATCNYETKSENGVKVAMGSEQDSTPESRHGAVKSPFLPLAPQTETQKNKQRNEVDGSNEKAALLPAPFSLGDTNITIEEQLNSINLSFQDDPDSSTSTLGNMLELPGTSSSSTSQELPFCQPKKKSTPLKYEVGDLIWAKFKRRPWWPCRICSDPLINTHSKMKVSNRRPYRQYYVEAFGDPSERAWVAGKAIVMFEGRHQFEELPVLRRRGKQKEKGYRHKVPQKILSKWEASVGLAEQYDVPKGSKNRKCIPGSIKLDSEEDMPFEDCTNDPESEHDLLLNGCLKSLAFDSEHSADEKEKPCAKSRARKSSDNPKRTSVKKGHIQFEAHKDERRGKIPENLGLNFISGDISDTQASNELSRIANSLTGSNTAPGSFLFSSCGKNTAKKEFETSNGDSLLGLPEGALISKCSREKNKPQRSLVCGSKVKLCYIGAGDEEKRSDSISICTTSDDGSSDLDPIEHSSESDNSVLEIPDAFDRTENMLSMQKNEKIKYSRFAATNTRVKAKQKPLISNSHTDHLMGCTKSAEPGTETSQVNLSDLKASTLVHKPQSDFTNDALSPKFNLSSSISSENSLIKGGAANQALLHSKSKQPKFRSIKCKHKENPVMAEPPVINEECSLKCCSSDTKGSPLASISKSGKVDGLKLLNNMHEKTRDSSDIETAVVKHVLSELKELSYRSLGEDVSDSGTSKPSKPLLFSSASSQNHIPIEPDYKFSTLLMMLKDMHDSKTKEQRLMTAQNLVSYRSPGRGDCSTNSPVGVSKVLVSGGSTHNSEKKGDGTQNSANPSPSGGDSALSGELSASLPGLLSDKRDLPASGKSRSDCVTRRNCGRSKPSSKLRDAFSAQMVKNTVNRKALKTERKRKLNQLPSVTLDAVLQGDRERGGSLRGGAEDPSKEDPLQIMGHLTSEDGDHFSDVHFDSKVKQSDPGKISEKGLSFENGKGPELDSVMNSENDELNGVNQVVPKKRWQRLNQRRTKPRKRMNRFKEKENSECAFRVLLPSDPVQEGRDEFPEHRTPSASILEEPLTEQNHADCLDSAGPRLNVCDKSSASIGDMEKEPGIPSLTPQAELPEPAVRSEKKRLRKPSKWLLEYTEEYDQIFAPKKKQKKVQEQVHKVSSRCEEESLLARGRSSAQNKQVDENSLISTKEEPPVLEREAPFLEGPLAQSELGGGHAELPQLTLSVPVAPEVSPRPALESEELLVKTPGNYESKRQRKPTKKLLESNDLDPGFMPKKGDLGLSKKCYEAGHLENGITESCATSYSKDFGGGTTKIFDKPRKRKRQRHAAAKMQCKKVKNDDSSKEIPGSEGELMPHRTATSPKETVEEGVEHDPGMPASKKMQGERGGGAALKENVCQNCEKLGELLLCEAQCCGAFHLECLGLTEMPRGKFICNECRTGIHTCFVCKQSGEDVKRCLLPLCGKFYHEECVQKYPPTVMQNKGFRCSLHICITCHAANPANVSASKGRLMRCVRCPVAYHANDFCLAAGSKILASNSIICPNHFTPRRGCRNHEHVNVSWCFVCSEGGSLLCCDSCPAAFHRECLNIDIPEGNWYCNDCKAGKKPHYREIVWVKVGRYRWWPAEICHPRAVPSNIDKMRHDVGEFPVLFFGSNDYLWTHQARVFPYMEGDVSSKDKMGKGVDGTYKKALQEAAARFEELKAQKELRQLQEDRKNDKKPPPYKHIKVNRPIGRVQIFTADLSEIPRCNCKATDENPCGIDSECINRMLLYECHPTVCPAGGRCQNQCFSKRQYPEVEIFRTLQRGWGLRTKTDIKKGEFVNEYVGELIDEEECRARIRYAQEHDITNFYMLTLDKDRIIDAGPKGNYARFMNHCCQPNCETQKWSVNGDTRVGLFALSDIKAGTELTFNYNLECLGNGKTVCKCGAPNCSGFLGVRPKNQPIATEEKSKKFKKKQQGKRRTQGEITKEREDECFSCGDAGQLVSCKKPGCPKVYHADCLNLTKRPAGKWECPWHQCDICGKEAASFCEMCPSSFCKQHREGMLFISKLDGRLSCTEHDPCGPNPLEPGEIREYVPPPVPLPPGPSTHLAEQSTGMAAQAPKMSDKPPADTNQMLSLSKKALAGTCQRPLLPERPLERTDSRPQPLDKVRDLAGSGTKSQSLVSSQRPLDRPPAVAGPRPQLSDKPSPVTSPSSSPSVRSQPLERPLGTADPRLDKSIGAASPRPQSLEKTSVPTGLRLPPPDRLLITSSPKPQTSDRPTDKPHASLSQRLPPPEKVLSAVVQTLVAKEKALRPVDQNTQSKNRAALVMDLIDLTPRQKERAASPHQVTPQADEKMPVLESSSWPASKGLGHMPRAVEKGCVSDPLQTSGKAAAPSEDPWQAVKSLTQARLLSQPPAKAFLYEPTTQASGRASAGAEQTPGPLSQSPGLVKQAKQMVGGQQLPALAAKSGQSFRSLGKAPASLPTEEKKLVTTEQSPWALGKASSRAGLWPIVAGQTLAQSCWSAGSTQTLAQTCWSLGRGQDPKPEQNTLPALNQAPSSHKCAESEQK

[8] = molecular target: T2, Dual serine/threonine and tyrosine protein kinase (Homo sapiens) (UniProt Q6XUX3); experiment: Selectivity interaction (Ambit KINOMEscan and KiNATiv profiling in Jurkat cells) EUB0000090b DSTYK; type: cell-based; settings: at 1 µM
T2 sequence (whole entry): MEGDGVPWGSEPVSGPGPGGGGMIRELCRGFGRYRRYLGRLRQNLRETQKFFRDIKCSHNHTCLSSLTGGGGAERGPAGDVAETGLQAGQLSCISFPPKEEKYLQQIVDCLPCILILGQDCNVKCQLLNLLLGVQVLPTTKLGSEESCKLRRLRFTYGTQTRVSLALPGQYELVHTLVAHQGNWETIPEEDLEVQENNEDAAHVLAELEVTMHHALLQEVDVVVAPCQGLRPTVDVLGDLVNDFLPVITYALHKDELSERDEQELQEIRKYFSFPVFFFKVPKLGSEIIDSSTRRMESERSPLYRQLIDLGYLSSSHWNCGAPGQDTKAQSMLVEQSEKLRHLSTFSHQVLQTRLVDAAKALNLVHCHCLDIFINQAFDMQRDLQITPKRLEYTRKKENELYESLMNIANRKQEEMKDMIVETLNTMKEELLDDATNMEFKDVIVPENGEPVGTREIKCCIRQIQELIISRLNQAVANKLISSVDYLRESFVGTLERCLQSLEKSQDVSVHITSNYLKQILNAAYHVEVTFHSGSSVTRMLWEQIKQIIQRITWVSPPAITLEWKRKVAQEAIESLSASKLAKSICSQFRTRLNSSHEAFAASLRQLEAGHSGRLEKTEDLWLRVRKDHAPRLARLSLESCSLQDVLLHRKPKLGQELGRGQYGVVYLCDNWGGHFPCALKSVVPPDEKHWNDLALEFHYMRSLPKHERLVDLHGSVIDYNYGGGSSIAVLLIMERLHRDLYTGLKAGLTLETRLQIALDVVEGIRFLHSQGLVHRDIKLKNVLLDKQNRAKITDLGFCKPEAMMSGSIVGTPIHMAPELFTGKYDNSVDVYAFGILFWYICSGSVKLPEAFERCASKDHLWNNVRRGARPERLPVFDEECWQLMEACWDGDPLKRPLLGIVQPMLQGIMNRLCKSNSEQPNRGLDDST

[9] = molecular target: Serine/threonine-protein kinase B-raf (Homo sapiens) (UniProt P15056); experiment: (§1) Selectivity interaction (Ambit KINOMEscan and KiNATiv profiling in Jurkat cells) EUB0000090b BRAF; type: cell-based; settings: at 1 µM
Serine/threonine-protein kinase B-raf (Homo sapiens), sequence (P15056 whole entry): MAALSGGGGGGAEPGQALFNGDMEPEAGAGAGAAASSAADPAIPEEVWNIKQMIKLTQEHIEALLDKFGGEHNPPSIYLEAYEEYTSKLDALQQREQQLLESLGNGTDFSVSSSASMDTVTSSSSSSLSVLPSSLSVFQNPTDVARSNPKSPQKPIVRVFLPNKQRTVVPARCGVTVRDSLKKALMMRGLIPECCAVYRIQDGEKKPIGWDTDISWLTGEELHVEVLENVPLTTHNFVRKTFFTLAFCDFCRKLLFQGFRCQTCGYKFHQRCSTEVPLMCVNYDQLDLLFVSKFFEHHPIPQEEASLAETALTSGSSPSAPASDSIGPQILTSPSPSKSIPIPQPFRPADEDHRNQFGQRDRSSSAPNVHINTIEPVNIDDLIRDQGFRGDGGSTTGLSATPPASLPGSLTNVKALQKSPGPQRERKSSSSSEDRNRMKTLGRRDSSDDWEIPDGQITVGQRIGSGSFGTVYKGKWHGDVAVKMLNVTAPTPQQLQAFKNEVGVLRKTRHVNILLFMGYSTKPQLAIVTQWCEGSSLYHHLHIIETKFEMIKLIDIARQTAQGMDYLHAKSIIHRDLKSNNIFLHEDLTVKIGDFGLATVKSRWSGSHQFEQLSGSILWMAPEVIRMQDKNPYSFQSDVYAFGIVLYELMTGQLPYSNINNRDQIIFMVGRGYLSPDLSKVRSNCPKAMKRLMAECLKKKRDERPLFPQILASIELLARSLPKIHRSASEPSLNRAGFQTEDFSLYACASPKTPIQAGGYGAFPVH

[10] = system: Serine/threonine-protein kinase B-raf (Homo sapiens), P15056 [V600E]; experiment: as §1; type: cell-based; settings: at 1 µM
Serine/threonine-protein kinase B-raf (Homo sapiens), P15056 [V600E], sequence (P15056 whole entry V600E): as the sequence (P15056 whole entry) above, with V600E counted along it

Work on `CCC(=O)N1CCN(c2ccc(-n3c(=O)ccc4cnc5ccc(-c6cnc7ccccc7c6)cc5c43)cc2C(F)(F)F)CC1` yielded a % of control [1] of 85%.

Work on `Cc1ccc(-c2ccc3c(ccc4sc5c(c43)NC[C@@H](C)NC5=O)n2)cn1` yielded a % of inhibition [2] of -8%.

In the case of `C=CC(=O)Nc1cccc(C(=O)Nc2ccc(Nc3cc(-c4[nH]c(SC)nc4C)ccn3)cc2)c1`, the % of control ([3]; at 1 µM) is reported as 84% and the % of control ([3]; at 5 µM) is reported as 66%.

Compound `Cc1cc(CN)cc(C)c1-c1ncn(C)c1-c1cncn1C` has a dTagg [4] of 0.1 K.

For `CC[C@@H]1[C@H](F)C(=O)N[C@@H]1COc1nccc2cc(C(N)=O)c(OC)cc12` [ZIMLOVISERTIB], the % of inhibition [5] was 11.3%.

With `CNC(=O)Nc1ccc(-c2nc(N3CC4CCC(C3)O4)c3cnn(C4CCC5(CC4)OCCO5)c3n2)cc1` the % of control [6] was 85%.

`Cc1cc(C)cc([C@@H]2c3cc(C)ccc3NC(=O)CN2C(=O)c2ccc(Br)s2)c1` was tested, and the % of activity [7] was 105%.

Work on `CN(C)C/C=C/C(=O)Nc1ccc(C(=O)N2CCCC(Nc3ncc(Cl)c(-c4c[nH]c5ccccc45)n3)C2)cc1` (stereo unspecified) yielded a % of control [8] of 100%, a % of control [9] of 98% and a % of control [10] of 100%.
